Results as given in US20040043937A1, “Peptide and peptide mimetic derivatives with integrin-inhibitors properties II” (priority 2000, published 2004).
Where no end group is shown, it is not given here.

Tested on: mouse MC3T3 H1 osteoblast cultures
Experiment: Cell adhesion test: adhesion of osteoblast cultures in vitro to peptide-coated material surfaces
Assay type: cell-based
Settings: 50 000 cells/cm^2 inoculated, incubation in serum-free medium at 37° C./95% atmospheric humidity for one hour
Procedure: Example for Cell Adhesion Test The adhesion of mouse MC3T3 H1 osteoblast cultures in vitro to peptide-coated material surfaces was investigated. In this test, 50 000 cells/cm^2 were inoculated and, after incubation in serum-free medium at 37° C./95% atmospheric humidity for one hour, the proportion of adhered cells was determined. Cell adhesion rate [%]=adhered cells/inoculated cells×100 The coating of culture surfaces made of polystyrene precoated with bovine serum albumin (BSA) with thiol peptides is disclosed in the prior art (see DE 198 18098 (Merck Patent GmbH), Ex. 2). The coating of PMMA surfaces with acrylate peptides is also described in DE 198 18098, Ex. 3.

| Substance | cell adhesion rate [%] (adhered cells/inoculated cells×100) |
| --- | --- |
| Cys-Aca-Aca-Thr-Trp-Tyr-Lys-Ile-Ala ({Cys-Aca-Aca}-TWYKIA) [linear peptide with thiol (Cys) anchor] | 7 |
| Cys-Aca-Aca-Thr-Trp-Tyr-Lys-Ile-Ala-Phe-Gln-Arg ({Cys-Aca-Aca}-TWYKIAFQR) [linear peptide with thiol (Cys) anchor] | 17 |
| Cys-Aca-Aca-Thr-Trp-Tyr-Lys-Ile-Ala-Phe-Gln-Arg-Asn-Arg-Lys ({Cys-Aca-Aca}-TWYKIAFQRNRK) [linear peptide with thiol (Cys) anchor] | 101 |
| Gua-Mab-azaGly-Asp-Hda-εAhx-εAhx-Aca | 75 |
| Lys-Ile-Ala-Phe-Gln-Arg-Asn-Arg-Lys-Aca-Aca-Cys (KIAFQRNRK-{Aca-Aca-Cys}) [linear peptide with thiol (Cys) anchor] | 96 |
| Phe-Gln-Arg-Asn-Arg-Lys-Aca-Aca-Cys (FQRNRK-{Aca-Aca-Cys}) [linear peptide with thiol (Cys) anchor] | 13 |
| Thr-Trp-Tyr-Lys-Ile-Ala-Phe-Gln-Arg-Asn-Arg-Lys-Aca-Aca-Cys (TWYKIAFQRNRK-{Aca-Aca-Cys}) [linear peptide with thiol (Cys) anchor] | 105 |
